Reference: patent US9783536B2, “Nitrogen-containing heterocyclic compound or salt thereof” (FUJIFILM Corporation, priority 2013, dated 2017)
Read-outs that look alike come from different tables or passages of the source.

How the values were obtained:
[1] = target: T1, human PI3Kα protein (Homo sapiens, UniProt P42336); assay: PI3Kα enzyme assay (ADP-Glo); assay type: biochemical; settings: read-out: PI3Kα enzyme inhibitory activity
T1 construct: purchased Carna Biosciences, Inc; host or cells: baculovirus expression system
T1 sequence (P42336 whole entry): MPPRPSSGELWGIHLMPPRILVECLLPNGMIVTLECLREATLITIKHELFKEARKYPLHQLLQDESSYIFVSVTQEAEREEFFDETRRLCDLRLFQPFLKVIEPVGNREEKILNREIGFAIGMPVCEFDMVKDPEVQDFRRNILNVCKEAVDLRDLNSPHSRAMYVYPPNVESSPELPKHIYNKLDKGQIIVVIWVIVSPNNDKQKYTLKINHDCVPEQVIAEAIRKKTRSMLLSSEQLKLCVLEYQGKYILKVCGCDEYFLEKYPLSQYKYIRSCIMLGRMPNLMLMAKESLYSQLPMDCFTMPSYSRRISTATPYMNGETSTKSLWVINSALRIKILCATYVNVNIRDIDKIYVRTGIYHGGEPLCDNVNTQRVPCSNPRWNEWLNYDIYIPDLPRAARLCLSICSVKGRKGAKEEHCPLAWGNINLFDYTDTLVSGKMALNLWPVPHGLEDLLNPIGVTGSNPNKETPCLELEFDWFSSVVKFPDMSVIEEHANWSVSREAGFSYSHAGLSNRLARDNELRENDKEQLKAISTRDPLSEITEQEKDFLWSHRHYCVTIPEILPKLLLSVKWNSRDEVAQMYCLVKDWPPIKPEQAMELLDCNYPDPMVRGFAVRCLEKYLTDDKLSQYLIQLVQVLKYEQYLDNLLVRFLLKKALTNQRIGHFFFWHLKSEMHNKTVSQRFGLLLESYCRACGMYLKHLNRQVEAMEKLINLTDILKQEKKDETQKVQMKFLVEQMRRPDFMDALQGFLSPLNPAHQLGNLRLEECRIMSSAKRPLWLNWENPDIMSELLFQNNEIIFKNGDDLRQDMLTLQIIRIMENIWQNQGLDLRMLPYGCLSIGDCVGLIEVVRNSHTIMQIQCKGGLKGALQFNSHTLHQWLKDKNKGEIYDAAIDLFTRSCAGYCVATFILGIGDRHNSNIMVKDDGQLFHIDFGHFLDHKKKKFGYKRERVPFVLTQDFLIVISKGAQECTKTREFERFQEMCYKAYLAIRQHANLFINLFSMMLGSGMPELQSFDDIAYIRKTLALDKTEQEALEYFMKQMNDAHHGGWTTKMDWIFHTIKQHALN
T1 sequence (P27986 whole entry partner): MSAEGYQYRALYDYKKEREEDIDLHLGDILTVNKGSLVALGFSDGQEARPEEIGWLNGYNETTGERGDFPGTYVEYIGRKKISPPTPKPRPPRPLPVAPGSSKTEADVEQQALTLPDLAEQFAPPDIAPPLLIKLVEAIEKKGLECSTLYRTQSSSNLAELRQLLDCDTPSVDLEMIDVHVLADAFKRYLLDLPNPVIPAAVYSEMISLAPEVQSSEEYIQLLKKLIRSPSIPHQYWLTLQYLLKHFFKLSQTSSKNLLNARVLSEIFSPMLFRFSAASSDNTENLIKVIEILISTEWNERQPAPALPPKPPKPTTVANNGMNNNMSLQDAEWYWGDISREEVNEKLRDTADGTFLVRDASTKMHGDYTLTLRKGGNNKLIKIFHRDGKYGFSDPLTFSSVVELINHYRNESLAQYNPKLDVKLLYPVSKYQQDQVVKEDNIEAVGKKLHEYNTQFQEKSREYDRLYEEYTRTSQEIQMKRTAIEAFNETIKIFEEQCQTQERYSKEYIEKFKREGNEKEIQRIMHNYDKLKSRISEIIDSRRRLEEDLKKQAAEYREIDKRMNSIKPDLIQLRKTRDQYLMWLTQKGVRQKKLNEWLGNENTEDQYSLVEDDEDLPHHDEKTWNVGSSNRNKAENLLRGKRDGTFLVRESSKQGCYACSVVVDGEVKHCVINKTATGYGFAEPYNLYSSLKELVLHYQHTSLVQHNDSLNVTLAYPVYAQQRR
Procedure, shortened: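 Biotinylated human PI3Kα (baculovirus-expressed, 4.5 nmol/L) pre-incubated 15 min with compound in Tris-HCl pH 7.5, MgCl2, BSA; reaction 60 min at 25° C with 50 μmol/L PIP2 and 100 μmol/L ATP final. ADP quantified by ADP-Glo luminescence; IC50 calculated.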

[2] = target: T2, GST fusion human ERK2 protein (Homo sapiens, UniProt P28482); assay: ERK2 enzyme assay (2); assay type: biochemical; settings: read-out: ERK2 enzyme inhibitory activity (2)
T2 construct: purchased Carna Biosciences, Inc; host or cells: E. coli expression system
T2 sequence (P28482 whole entry, the tested form may be a part): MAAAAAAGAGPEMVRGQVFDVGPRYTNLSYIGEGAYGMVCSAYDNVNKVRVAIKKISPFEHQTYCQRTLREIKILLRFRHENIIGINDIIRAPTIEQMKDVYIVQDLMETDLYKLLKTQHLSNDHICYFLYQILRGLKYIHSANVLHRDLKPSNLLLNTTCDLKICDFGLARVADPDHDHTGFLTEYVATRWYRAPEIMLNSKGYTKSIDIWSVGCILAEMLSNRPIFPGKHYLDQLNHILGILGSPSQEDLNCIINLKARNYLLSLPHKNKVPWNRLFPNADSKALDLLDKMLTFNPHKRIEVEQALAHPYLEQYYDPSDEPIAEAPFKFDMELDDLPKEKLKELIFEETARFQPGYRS
Procedure, shortened: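 GST-tagged human ERK2 expressed in E. coli (1.25 nmol/L) was preincubated with compound for 15 min at room temperature in pH 7.5 Hepes buffer with MgCl2, DTT and Brij35. Reaction with FL-Peptide 8 (final 4.25 μmol/L) and ATP (final 1 mmol/L) ran 120 min at 25 °C; EDTA stopped it, and phosphorylated peptide was quantified by mobility-shift separation to derive IC50.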

[3] = target: T2, GST fusion human ERK2 protein; assay: ERK2 enzyme assay (1); assay type: biochemical; settings: read-out: ERK2 enzyme inhibitory activity (1)
Procedure, shortened: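 Enzyme (2.5 nmol/L, E. coli-expressed) preincubated with compound 15 min at room temperature in HEPES/MgCl2/DTT/Brij35 buffer, pH 7.5; reaction with 4.25 μmol/L FL-Peptide 8 and 43.1 μmol/L ATP for 120 min at 25 °C. Phosphorylated peptide fraction quantified by mobility-shift separation after EDTA stop; IC50 calculated.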

[4] = tested on: CHO-K1 cells; assay: CHO cell toxicity test; assay type: cell-based, Chinese hamster; settings: Cricetulus griseus; CHO-K1 cells, 24 hours culture with compound, CellTiter-Glo; read-out: IC50 value (concentration at which the number of viable cells was suppressed to 50% or less)
Procedure, shortened: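 CHO-K1 cells were cultured 24 h, then exposed 24 h to compound at final 25.00 to 0.20 μmol/L in F-12 with 2% FCS. Viability read by CellTiter-Glo luminescence; inhibition % = 100 − (treated/untreated signal)×100.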

[5] = 4.5 nmol/L PI3Kα, PIP2 50 μmol/L, ATP 100 μmol/L
[6] = 2.5 nmol/L ERK2, ATP 43.1 μmol/L

IC50 [1]	IC50 ([2]; ERK2 enzyme assay (2))	IC50 ([3]; ERK2 enzyme assay (1))	IC50 [1, 5]	IC50 ([2]; 1.25 nmol/L ERK2, ATP 1 mmol/L)	IC50 [3, 6]	Compound	IC50 [4]
< 1000 nM	< 1000 nM	< 1000 nM				FC1(F)CCN(CCCn2cc(-c3cnc4ccc(Nc5nnc(C6CCCC6)s5)nc4c3)cn2)C1 [Example 0352]	≥ 25000 nM
			< 1000 nM	< 1000 nM	< 1000 nM	COCc1cnnc(Nc2ccc3ncc(-c4cnn(CCCN5CCCC5)c4)cc3n2)c1 [Example 0018]	≥ 25000 nM
			< 1000 nM		< 1000 nM	O=S(=O)(Nc1nnc(Nc2ccc3ncc(-c4cnn(CCN5CCOCC5)c4)cc3n2)s1)c1ccccc1 [Example 0179, N-(5-((7-(1-(2-morpholinoethyl)-1H-pyrazol-4-yl)-1,5-naphthyridin-2-yl)amino)-1,3,4-thiadiazol-2-yl)benzene sulfonamide]	≥ 25000 nM
			< 1000 nM	< 1000 nM	< 1000 nM	CC(C)c1cnnc(Nc2ccc3ncc(-c4cnn(C)c4)cc3n2)c1 [Example 0145]	≥ 25000 nM
< 1000 nM	< 1000 nM	< 1000 nM				OCCCn1cc(-c2cnc3ccc(Nc4nnc(C5CCCC5)s4)nc3c2)cn1 [Example 0316, 3-(4-(6-((5-cyclopentyl-1,3,4-thiadiazol-2-yl)amino)-1,5-naphthyridin-3-yl)-1H-pyrazol-1-yl)propan-1-ol]	≥ 25000 nM
< 1000 nM	< 1000 nM	< 1000 nM				CCc1cnnc(Nc2ccc3ncc(-c4cnn(CCCN5CCCC5)c4)cc3n2)c1 [Example 0291]	≥ 25000 nM
			1000 to 10000 nM		< 1000 nM	Cn1cc(-c2cnc3ccc(Nc4cccnn4)nc3c2)cn1 [Example 0037]	≥ 25000 nM
< 1000 nM		< 1000 nM				CC(C)c1cnnc(Nc2ccc3ncc(-c4cnn(CCC(O)C(F)(F)F)c4)cc3n2)c1 (centres unmarked) [Example 0400]	≥ 25000 nM
< 1000 nM	< 1000 nM	< 1000 nM				Cc1nn(CCCN2CCCC2)cc1-c1cnc2ccc(Nc3nnc(C(C)C)s3)nc2c1 [Example 0321, 5-isopropyl-N-(7-(3-methyl-1-(3-(pyrrolidin-1-yl)propyl)-1H-pyrazol-4-yl)-1,5-naphthyridin-2-yl)-1,3,4-thiadiazole-2-amine]	≥ 25000 nM
< 1000 nM		< 1000 nM				Cc1nnc(Nc2ccc3ncc(-c4cnn(CCCN(C)C)c4)cc3n2)s1 [Example 0302]	≥ 25000 nM
			< 1000 nM	< 1000 nM	< 1000 nM	CCCc1nn(C)cc1-c1cnc2ccc(Nc3nnc(C(C)C)s3)nc2c1 [Example 0122]	≥ 25000 nM
< 1000 nM	< 1000 nM	< 1000 nM				CCCc1cnnc(Nc2ccc3ncc(-c4cnn(CCCN5CCCC5)c4)cc3n2)c1 [Example 0293]	≥ 25000 nM
< 1000 nM		< 1000 nM				CC(C)c1cnnc(Nc2ccc3ncc(-c4cnn(CCOC5CCOCC5)c4)cc3n2)c1 [Example 0395]	≥ 25000 nM
< 1000 nM		< 1000 nM				c1nc2ccc(Nc3nnc(C4CCOC4)s3)nc2cc1-c1cnn(CCCN2CCCC2)c1 (centres unmarked) [Example 0238]	≥ 25000 nM
< 1000 nM		< 1000 nM				c1nc2ccc(Nc3nnc([C@H]4CCCO4)s3)nc2cc1-c1cnn(CCCN2CCCC2)c1 [Example 0237]	≥ 25000 nM
< 1000 nM		< 1000 nM				Cn1cc(-c2cnc3ccc(Nc4nnc([C@@H]5CCCO5)s4)nc3c2)cn1 [Example 0231]	≥ 25000 nM
			< 1000 nM		< 1000 nM	c1csc(Nc2ccc3ncc(-c4cnn(CCCN5CCCC5)c4)cc3n2)n1 [Example 0128]	≥ 25000 nM
< 1000 nM		< 1000 nM				c1nc2ccc(Nc3nnc(C4CCOCC4)s3)nc2cc1-c1cnn(CCCN2CCCC2)c1 [Example 0245]	≥ 25000 nM

IC50 [1]	IC50 ([2]; ERK2 enzyme assay (2))	IC50 ([3]; ERK2 enzyme assay (1))	IC50 [1, 5]	IC50 ([2]; 1.25 nmol/L ERK2, ATP 1 mmol/L)	IC50 [3, 6]	Compound	IC50 [4]
< 1000 nM		< 1000 nM				CN(C)CCCn1cc(-c2cnc3ccc(Nc4nncs4)nc3c2)cn1 [Example 0301]	≥ 25000 nM
			< 1000 nM		< 1000 nM	c1nc2ccc(Nc3cc(C4CCOC4)cnn3)nc2cc1-c1cnn(CCCN2CCCC2)c1 (centres unmarked) [Example 0019, 7-(1-(3-(Pyrrolidin-1-yl)propyl)-1H-pyrazol-4-yl)-N-(5-(tetrahydrofuran-3-yl)pyridazin-3-yl)-1,5-naphthyridine-2-amine]	≥ 25000 nM
< 1000 nM		< 1000 nM				c1nc2ccc(Nc3cc(C4CC4)cnn3)nc2cc1-c1cnn(CCCN2CCOCC2)c1 [Example 0298, N-(5-cyclopropylpyridazin-3-yl)-7-(1-(3-morpholinopropyl)-1H-pyrazol-4-yl)-1,5-naphthyridine-2-amine]	≥ 25000 nM
< 1000 nM		< 1000 nM				CCc1nnc(Nc2ccc3ncc(-c4cnn(CCCN5CCCC5)c4)cc3n2)s1 [Example 0363]	≥ 25000 nM
			< 1000 nM		< 1000 nM	c1nnc(Nc2ccc3ncc(-c4cnn(CCCN5CCOCC5)c4)cc3n2)s1 [Example 0001, N-(7-(1-(3-morpholinopropyl)-1H-pyrazol-4-yl)-1,5-naphthyridin-2-yl)-1,3,4-thiadiazole-2-amine]	≥ 25000 nM
< 1000 nM		< 1000 nM				c1nc2ccc(Nc3nnc([C@@H]4CCCO4)s3)nc2cc1-c1cnn(CCCN2CCCC2)c1 [Example 0233]	≥ 25000 nM
< 1000 nM		< 1000 nM				CC(C)c1cnnc(Nc2ccc3ncc(-c4cnn(CCCN5CCCCC5)c4)cc3n2)c1 [Example 0373, N-(5-isopropylpyridazin-3-yl)-7-(1-(3-(piperidin-1-yl)propyl)-1H-pyrazol-4-yl)-1,5-naphthyridine-2-amine]	≥ 25000 nM
< 1000 nM		< 1000 nM				CCN(CC)CCCn1cc(-c2cnc3ccc(Nc4cc(C(C)C)cnn4)nc3c2)cn1 [Example 0374, 7-(1-(3-(Diethylamino)propyl)-1H-pyrazol-4-yl)-N-(5-isopropylpyridazin-3-yl)-1,5-naphthyridine-2-amine]	≥ 25000 nM
			< 1000 nM		< 1000 nM	OCCOc1cncc(Nc2cnc3ccc(Nc4nnc(C5CCCC5)s4)nc3c2)c1 [Example 0097]	≥ 25000 nM
< 1000 nM		< 1000 nM				Cn1cc(-c2cnc3ccc(Nc4nnc([C@H]5CCCO5)s4)nc3c2)cn1 [Example 0232]	≥ 25000 nM
< 1000 nM		< 1000 nM				CC(C)c1cnnc(Nc2ccc3ncc(-c4ccncc4)cc3n2)c1 [Example 0406]	≥ 25000 nM
< 1000 nM		< 1000 nM				c1nc2ccc(Nc3nnc(C4CCCO4)s3)nc2cc1-c1cnn(CCCN2CCCC2)c1 (centres unmarked) [Example 0325, N-(7-(1-(3-(pyrrolidin-1-yl)propyl)-1H-pyrazol-4-yl)-1,5-naphthyridin-2-yl)-5-(tetrahydrofuran-2-yl)-1,3,4-thiadiazole-2-amine]	≥ 25000 nM
< 1000 nM		< 1000 nM				c1n[nH]cc1Nc1cnc2ccc(Nc3nnc(C4CCC4)s3)nc2c1 [Example 0222, N^2-(5-cyclobutyl-1,3,4-thiadiazol-2-yl)-N^7-(1H-pyrazol-4-yl)-1,5-naphthyridine-2,7-diamine]	≥ 25000 nM
< 1000 nM		< 1000 nM				CCCc1nn(CCCN2CCOCC2)cc1-c1cnc2ccc(Nc3cc(C(C)C)cnn3)nc2c1 [Example 0390, N-(5-isopropylpyridazin-3-yl)-7-(1-(3-morpholinopropyl)-3-propyl-1H-pyrazol-4-yl)-1,5-naphthyridine-2-amine]	≥ 25000 nM
< 1000 nM		< 1000 nM				CC(C)(CO)c1cnnc(Nc2ccc3ncc(-c4cnn(CCCN5CCCC5)c4)cc3n2)c1 [Example 0405, 2-methyl-2-(6-((7-(1-(3-(pyrrolidin-1-yl)propyl)-1H-pyrazol-4-yl)-1,5-naphthyridin-2-yl)amino)pyridazin-4-yl)propan-1-ol]	≥ 25000 nM
< 1000 nM		< 1000 nM				c1nc2ccc(Nc3nnc(C4CC4)s3)nc2cc1-c1cnn(CCCN2CCCC2)c1 [Example 0362]	≥ 25000 nM
< 1000 nM	< 1000 nM					CC(C)c1cnnc(Nc2ccc3ncc(-c4cnn(CCCN5C[C@@H](C)N(C)[C@@H](C)C5)c4)cc3n2)c1 [Example 0426, N-(5-isopropylpyridazin-3-yl)-7-(1-(3-((3S,5R)-3,4,5-trimethylpiperazin-1-yl)propyl)-1H-pyrazol-4-yl)-1,5-naphthyridine-2-amine]	≥ 25000 nM
